This experiment concerns SARS-CoV-2. The experiment is described as follows: microbe, parasite or virus in culture. Conditions: Severe acute respiratory syndrome coronavirus 2, Vero C1008, 48 h.

Take `CCC(=O)O[C@]1(C(=O)SCF)[C@H](C)C[C@H]2[C@@H]3C[C@H](F)C4=CC(=O)C=C[C@]4(C)[C@@]3(F)[C@@H](O)C[C@@]21C` [FLUTICASONE PROPIONATE]: the IC50 is > 20 µM. The IC50 (read-out: pIC50 (converted)) was > 20 µM.
Regarding `CC[C@H](C)[C@H]1O[C@]2(C=C[C@@H]1C)C[C@@H]1C[C@@H](C/C=C(/C)[C@@H](O[C@H]3C[C@H](OC)[C@@H](O[C@H]4C[C@H](OC)[C@@H](O)[C@H](C)O4)[C@H](C)O3)[C@@H](C)/C=C\C=C3\CO[C@@H]4[C@H](O)C(C)=C[C@@H](C(=O)O1)[C@]34O)O2`, the IC50 is > 20 µM. Besides, the IC50 (read-out: pIC50 (converted)) is > 20 µM.
For the compound `CN(Cc1cc(Br)cc(Br)c1N)C1CCCCC1` [BROMHEXINE], the IC50 was > 20 µM. Also, the IC50 (read-out: pIC50 (converted)) is > 20 µM.
In the case of `N[C@H](CCC(=O)NCCS(=O)(=O)O)C(=O)O`, the IC50 was > 20 µM. For the same compound, the IC50 (read-out: pIC50 (converted)) is > 20 µM.
As to `CC[N+](C)(CC)CCOC(=O)C(O)(c1ccccc1)C1CCCCC1` (centres undefined) [OXYPHENONIUM], the IC50 was > 20 µM. Besides, under “read-out: pIC50 (converted)”, the IC50 was > 20 µM.
For `NC(=O)OCCCc1ccccc1` [PHENPROBAMATE], the IC50 is > 20 µM. Moreover, where the note is “read-out: pIC50 (converted)”, the IC50 was > 20 µM.
Consider `Cn1ncnc1[C@H]1c2n[nH]c(=O)c3cc(F)cc(c23)N[C@@H]1c1ccc(F)cc1` [TALAZOPARIB], for which the IC50 is > 20 µM. For the setting “read-out: pIC50 (converted)”, the IC50 is > 20 µM.
`C=C1CC[C@@]2(O)[C@H]3Cc4ccc(O)c5c4[C@@]2(CCN3CC2CC2)[C@H]1O5`: the IC50 is > 20 µM. Moreover, the IC50 (read-out: pIC50 (converted)) was > 20 µM.
In the case of `O=C(O)C(=O)Cc1c[nH]c2ccccc12`, the IC50 is > 20 µM. Besides, the IC50 (read-out: pIC50 (converted)) was > 20 µM.
For `COc1cc(NC(C)CCCN)c2ncccc2c1` (centres undefined) [PRIMAQUINE], the IC50 was > 20 µM. For the same compound, for the setting “read-out: pIC50 (converted)”, the IC50 is > 20 µM.
As for `O=C(O)c1ccccc1` [BENZOIC ACID], the IC50 was > 20 µM. In addition, the IC50 (read-out: pIC50 (converted)) was > 20 µM.
In the case of `[NH-]c1c[n+](N2CCOCC2)no1` [LINSIDOMINE], the IC50 was > 20 µM. Further, where the note is “read-out: pIC50 (converted)”, the IC50 is > 20 µM.
`CC(=O)NC1CCSC1=O` (centres undefined) [CITIOLONE]: the IC50 is > 20 µM. Moreover, the IC50 (read-out: pIC50 (converted)) is > 20 µM.
As to `NC(=O)c1ncn([C@@H]2O[C@H](CO)[C@@H](O)[C@H]2O)c1N` [ACADESINE], the IC50 is > 20 µM. In addition, the IC50 (read-out: pIC50 (converted)) was > 20 µM.
On to `NC(=O)c1ccccc1O` [SALICYLAMIDE], for which the IC50 is > 20 µM. Moreover, the IC50 (read-out: pIC50 (converted)) was > 20 µM.
Regarding `CN1C(=O)CN=C(c2ccccc2)c2cc(Cl)ccc21` [DIAZEPAM], the IC50 is > 20 µM. For the same compound, the IC50 (read-out: pIC50 (converted)) is > 20 µM.
In the case of `CN(C)CCC=C1c2ccccc2C=Cc2ccccc21` [CYCLOBENZAPRINE], the IC50 is > 20 µM. Also, the IC50 (read-out: pIC50 (converted)) is > 20 µM.
Turning to `CN(C)CCCSC(=N)N`, the IC50 is > 20 µM. Besides, under “read-out: pIC50 (converted)”, the IC50 was > 20 µM.
On to `Cc1cc(Nc2nc(N[C@@H](C)c3ncc(F)cn3)ncc2Cl)[nH]n1` [AZD-1480], for which the IC50 is > 20 µM. Moreover, under “read-out: pIC50 (converted)”, the IC50 was > 20 µM.
Take `CC(C)OC(=O)[C@H](C)N[P@](=S)(OC[C@H]1O[C@@H](n2ccc(=O)[nH]c2=O)[C@](C)(O)[C@@H]1O)Oc1ccccc1`: the IC50 is > 20 µM. Also, the IC50 (read-out: pIC50 (converted)) was > 20 µM.
For `CCNC1=Nc2ccc(Cl)cc2C(C)(c2ccccc2)O1` (centres undefined) [ETIFOXINE], the IC50 was > 20 µM. Also, for the setting “read-out: pIC50 (converted)”, the IC50 was > 20 µM.
In the case of `CC(C)(C)c1cc(C(=O)c2cccs2)cc(C(C)(C)C)c1O` [PRIFELONE], the IC50 is > 20 µM. For the same compound, the IC50 (read-out: pIC50 (converted)) was > 20 µM.
On to `O=C(O)C1(c2ccc3c(c2)OC[C@H](Cc2ccc(-c4ccccc4)cc2)[C@H]3O)CCCC1`, for which the IC50 was > 20 µM. Moreover, the IC50 (read-out: pIC50 (converted)) was > 20 µM.
In the case of `CC(=O)[C@]1(N)Cc2c(O)c3c(c(O)c2[C@@H](O[C@H]2C[C@H](O)[C@H](O)CO2)C1)C(=O)c1ccccc1C3=O` [AMRUBICIN], the IC50 is > 20 µM. The IC50 (read-out: pIC50 (converted)) is > 20 µM.
Take `CC(C)=CCCC(C)C1CCC2(C)C3=C(CCC12C)C1(C)CCC(O)C(C)(C)C1CC3` (centres undefined): the IC50 is > 20 µM. For the same compound, the IC50 (read-out: pIC50 (converted)) is > 20 µM.
`CC(N/C(=N\C#N)Nc1ccncc1)C(C)(C)C` (centres undefined) [PINACIDIL ANHYDROUS]: the IC50 is > 20 µM. Also, the IC50 (read-out: pIC50 (converted)) is > 20 µM.
On to `CCc1c2c(nc3ccc(O)cc13)-c1cc3c(c(=O)n1C2)COC(=O)[C@]3(O)CC` [7-ETHYL-10-HYDROXYCAMPTOTHECIN], for which the IC50 is > 20 µM. In addition, the IC50 (read-out: pIC50 (converted)) was > 20 µM.
For the compound `N[C@@H](CCC(=O)O)C(=O)O` [GLUTAMIC ACID], the IC50 was > 20 µM. For the same compound, the IC50 (read-out: pIC50 (converted)) is > 20 µM.
Take `Cc1c(N(C)C)c(=O)n(-c2ccccc2)n1C` [AMINOPYRINE]: the IC50 is > 20 µM. In addition, the IC50 (read-out: pIC50 (converted)) is > 20 µM.
In the case of `CC1(C)[C@@H](O[C@H]2O[C@H](C(=O)O)[C@@H](O)[C@H](O)[C@H]2O[C@@H]2O[C@H](C(=O)O)[C@@H](O)[C@H](O)[C@H]2O)CC[C@]2(C)[C@H]3C(=O)C=C4[C@@H]5C[C@@](C)(C(=O)O)CC[C@]5(C)CC[C@@]4(C)[C@]3(C)CC[C@@H]12` [GLYCYRRHIZIN], the IC50 was > 20 µM. Besides, where the note is “read-out: pIC50 (converted)”, the IC50 is > 20 µM.
As for `C=C[C@@H]1C[C@]1(NC(=O)[C@@H]1C[C@@H]2CN1C(=O)[C@H](C(C)(C)C)NC(=O)O[C@@H]1C[C@H]1CCCCCc1nc3ccc(OC)cc3nc1O2)C(=O)NS(=O)(=O)C1CC1` [GRAZOPREVIR ANHYDROUS], the IC50 is > 20 µM. For the same compound, where the note is “read-out: pIC50 (converted)”, the IC50 was > 20 µM.
For `Cc1cc(Nc2cc(N3CCN(C)CC3)nc(Sc3ccc(NC(=O)C4CC4)cc3)n2)n[nH]1` [TOZASERTIB], the IC50 was > 20 µM. The IC50 (read-out: pIC50 (converted)) is > 20 µM.
Regarding `CC1(C)OC2(C)C(O)CC1CC2O` (centres undefined) [EPOMEDIOL], the IC50 was > 20 µM. In addition, under “read-out: pIC50 (converted)”, the IC50 is > 20 µM.
On to `CCC(C)(C)O` [AMYLENE HYDRATE], for which the IC50 was > 20 µM. For the same compound, the IC50 (read-out: pIC50 (converted)) was > 20 µM.
Turning to `COc1ccc(CCNCC(O)COc2cccc(C)c2)cc1OC` (centres undefined) [BEVANTOLOL], the IC50 is > 20 µM. The IC50 (read-out: pIC50 (converted)) was > 20 µM.
As for `C[C@@H](NCCCc1cccc(C(F)(F)F)c1)c1cccc2ccccc12`, the IC50 is > 20 µM. Further, the IC50 (read-out: pIC50 (converted)) is > 20 µM.
Regarding `CN1CCc2cccc3c2[C@H]1Cc1ccc(O)c(O)c1-3` [APOMORPHINE], the IC50 is > 20 µM. Moreover, where the note is “read-out: pIC50 (converted)”, the IC50 was > 20 µM.
As to `COc1ccc2c(c1)[C@H]1C[C@@]1(C(=O)N1C3CCC1CN(C)C3)Cn1c-2c(C2CCCCC2)c2ccc(C(=O)NS(=O)(=O)N(C)C)cc21`, the IC50 was > 20 µM. Besides, the IC50 (read-out: pIC50 (converted)) is > 20 µM.
`CC[C@H](C)n1ncn(-c2ccc(N3CCN(c4ccc(OC[C@H]5CO[C@@](Cn6cncn6)(c6ccc(F)cc6F)O5)cc4)CC3)cc2)c1=O`: the IC50 is > 20 µM. Moreover, the IC50 (read-out: pIC50 (converted)) is > 20 µM.
With `Cc1cnc(Nc2ccc(OCCN3CCCC3)cc2)nc1Nc1cccc(S(=O)(=O)NC(C)(C)C)c1` [FEDRATINIB], the IC50 was > 20 µM. Moreover, under “read-out: pIC50 (converted)”, the IC50 is > 20 µM.
Consider `COC1=C[C@@H]2C3=C([C@@H]2C1=O)[C@@H](NC(C)=O)CCc1cc(OC)c(OC)c(OC)c13`, for which the IC50 was > 20 µM. Further, where the note is “read-out: pIC50 (converted)”, the IC50 is > 20 µM.
On to `C=CC1=C(C(=O)O)N2C(=O)[C@@H](NC(=O)/C(=N\OCC(=O)O)c3csc(N)n3)[C@H]2SC1` [CEFIXIME], for which the IC50 is > 20 µM. Further, the IC50 (read-out: pIC50 (converted)) is > 20 µM.
